Structures are written as SMILES.

A word on the Ki: it is the dissociation constant of the complex between target and ligand, obtained from inhibition or displacement.

The target in the assay is Lysine-specific histone demethylase 1A (Homo sapiens, UniProt O60341). The assay is described as follows: Inhibition of human LSD1 assessed as reduction in H2O2 production using H3K4me2 (1 to 20 residues) peptide as substrate preincubated for 10 mins followed by substrate addition measured after 30 mins in presence of DTT by peroxidase coupled enzyme assay.

As to `CC(C)C[C@H](NC(=O)[C@H](Cc1ccccc1)NC(=O)[C@H](CO)NC(=O)[C@H](CCCNC(=N)N)NC(=O)[C@@H]1CCCN1C(=O)CO)C(=O)N[C@H](C(=O)N[C@@H](CCCNC(=N)N)C(=O)N[C@@H](CCCCN)C(=O)N1CCC[C@H]1C(=O)N[C@@H](CCCCNC(=O)CO)C(N)=O)C(C)C`, the Ki turned out to be 190 µM.

(Values after ChEMBL document CHEMBL3875223, “Activation of lysine-specific demethylase 1 inhibitor peptide by redox-controlled cleavage of a traceless linker” (Bioorg Med Chem, 2017).)
